Key:
mice and rats = experiment: Acute toxicity test, symptoms and findings common to mice and rats; assay type: in vivo; details: for life period in the death cases: both animals
Protocol: (§1) Acute toxicity test was conducted on rats aged four weeks to which 5-(3-ethoxy-4-pentyloxyphenyl)-2,4-thiazolidinedione was administered.
The following symptoms in common with the mice and rats were observed.

[1] = Acute toxicity test, mouse; assay type: in vivo; details: mouse, in vivo
Mouse = experiment: Acute toxicity test, mouse; assay type: in vivo; details: mice
Rat = experiment: in vivo
Protocol: as §1

in vivo = details: rat, in vivo
Protocol: as §1

[2] = ip, intraperitoneal injection, female
[3] = ip, intraperitoneal injection, male
[4] = po, oral administration, female
[5] = sc, subcutaneous injection, female
[6] = sc, subcutaneous injection, male

For `CCCCCOc1ccc(C2SC(=O)NC2=O)cc1OCC` (centres unmarked) [5-(3-ethoxy-4-pentyloxyphenyl)-2,4-thiazolidinedione], the General symptoms (mice and rats; in vivo, sc) was 3 or 5 hours after the administration, a slight suppression of spontaneous motility was found, and then, lowering in tonus of the abdominal muscle, walking disorder, lacrimation and respiratory depression were observed, the “life period in the death cases” value (mice and rats; intraperitoneal administration) was 2 to 24 h and the “Observation on dissection, death cases” value (mice and rats; mice and rats) was “congestion of the lung was observed in both mice and rats”. For the same compound, the “life period in the death cases” value (mice and rats; oral administration, major cases) was 2 to 24 h, the “life period in the death cases” value (mice and rats; oral administration, minor cases) was 48 to 96 h and the “life period in the death cases” value (mice and rats; subcutaneous administration) was “from the night of the administration day to three days after the administration”. The LD50 [1, 2] was 500 mg/kg, the LD50 [1, 3] was 560 mg/kg and the LD50 [1, 4] was 2150 mg/kg. It also gave an LD50 ([1]; po, oral administration, male) of 2320 mg/kg, an LD50 [1, 5] of 2270 mg/kg and an LD50 [1, 6] of 1720 mg/kg. For the same compound, the “General symptoms, additional in mice” value (Mouse; intraperitoneal injection) was “projection of the eyeball, a secretion in the margin of palpebra, fall of the body surface temperature and a slight degree of tremor in a few cases were seen”, the “General symptoms, additional in mice” value (Mouse; oral administration) was “lacrimation, a secretion in the margin of palpebra and fall of the body surface temperature were additionally observed” and the “General symptoms, additional in mice” value (Mouse; subcutaneous injection, next day after administration) was “projection of the eyeball, a secretion in the margin of palpebra and fall of the body surface temperature were additionally seen”. The Observation on dissection (Rat; rat, in vivo, po) was “atrophy of the thymus gland was further seen”, the “Observation on dissection, survival cases” value (Rat; rats, subcutaneous administration, injection area) was “formed with a cyst of hen's egg size in the injection area, and the cyst was found to contain an extremely small amount of unabsorbed medicament and a small amount of extravasation liquid” and the LD50 (in vivo; [2]) was 520 mg/kg. The LD50 (in vivo; [3]) was 490 mg/kg, the LD50 (in vivo; [4]) was 4330 mg/kg and the LD50 (in vivo; po, oral administration, male) was 5300 mg/kg. For the same compound, the LD50 (in vivo; [5]) was 3300 mg/kg and the LD50 (in vivo; [6]) was 3210 mg/kg.

Reference: patent US4602026A, “Ophthalmic topical agent for remedy of diseases of iris and ciliary body” (Senju Pharmaceutical Co., Ltd., priority 1984, dated 1986)
